Numbers after ± are expanded uncertainties.
How the values were obtained:
[1] = for surface tension liquid-gas: Ring tensiometer; for mass density / speed of sound / viscosity: 100 kPa, Liquid
[2] = xn = mol fraction of the nth substance listed; settings: x2 = 0; for surface tension liquid-gas: Ring tensiometer; for mass density / speed of sound / viscosity: 100 kPa, Liquid

CCN1CCCC1=O [1-ethyl-2-pyrrolidinone]
[1]
Settings	mass density [kg/m3]	speed of sound [m/s]	surface tension liquid-gas [mN/m]	viscosity [mPa·s]
293.15 K	997.91 ± 1.6	1513.2 ± 4.1	36.5 ± 0.8	2.132 ± 0.032
303.15 K	989.34 ± 1.6	1475 ± 4.1	35.2 ± 0.8	1.777 ± 0.027
313.15 K	980.76 ± 1.7	1437.6 ± 4.1	34.2 ± 0.8	1.515 ± 0.023
323.15 K	972.16 ± 1.8	1400.6 ± 4	–	1.31 ± 0.02

OCCN(CCO)CCO [triethanolamine]
[1]
Settings	mass density [kg/m3]	speed of sound [m/s]	surface tension liquid-gas [mN/m]	viscosity [mPa·s]
293.15 K	1123.51 ± 2.1	1626.9 ± 3.9	46.3 ± 0.9	951.79 ± 95
303.15 K	1118 ± 2.1	1605.3 ± 3.8	45.6 ± 0.8	413.68 ± 30
313.15 K	1112.34 ± 2	1587.8 ± 3.8	44.8 ± 0.8	204.57 ± 9.8
323.15 K	1106.7 ± 2	1571.9 ± 3.8	–	111.34 ± 3.1

OCCNCCO [diethanolamine]
[1]
Settings	mass density [kg/m3]	speed of sound [m/s]	surface tension liquid-gas [mN/m]	viscosity [mPa·s]
293.15 K	1096.45 ± 1.9	1739.2 ± 4	47.4 ± 0.9	892.04 ± 87
303.15 K	1090.02 ± 1.8	1711.3 ± 4	46.6 ± 0.9	394.2 ± 28
313.15 K	1083.51 ± 1.8	1685.9 ± 3.9	46 ± 0.9	191.32 ± 8.8
323.15 K	1077.05 ± 1.7	1661.1 ± 3.9	–	102.72 ± 2.6

NCCO [2-aminoethan-1-ol]
[1]
Settings	mass density [kg/m3]	speed of sound [m/s]	surface tension liquid-gas [mN/m]	viscosity [mPa·s]
293.15 K	1015.93 ± 1.1	1734.4 ± 4	49.7 ± 0.9	24.23 ± 0.24
303.15 K	1008.02 ± 1	1702.1 ± 4	47.8 ± 0.9	14.99 ± 0.15
313.15 K	1000.06 ± 0.95	1670.1 ± 3.9	47.1 ± 0.9	9.776 ± 0.1
323.15 K	992.05 ± 1	1637.2 ± 3.9	–	6.765 ± 0.076

NCCO [2-aminoethan-1-ol] + CCN1CCCC1=O
[2]
Settings	mass density [kg/m3]	speed of sound [m/s]	surface tension liquid-gas [mN/m]	viscosity [mPa·s]
293.15 K	1015.93 ± 1.1	1734.4 ± 4	49.7 ± 0.9	24.23 ± 0.24
303.15 K	1008.02 ± 1	1702.1 ± 4	47.8 ± 0.9	14.99 ± 0.15
313.15 K	1000.06 ± 0.95	1670.1 ± 3.9	47.1 ± 0.9	9.776 ± 0.1
323.15 K	992.05 ± 1	1637.2 ± 3.9	–	6.765 ± 0.076

OCCN(CCO)CCO [triethanolamine] + CCN1CCCC1=O
[2]
Settings	mass density [kg/m3]	speed of sound [m/s]	surface tension liquid-gas [mN/m]	viscosity [mPa·s]
293.15 K	1123.51 ± 2.1	1626.9 ± 3.9	46.3 ± 0.9	951.79 ± 95
303.15 K	1118 ± 2.1	1605.3 ± 3.8	45.6 ± 0.8	413.68 ± 30
313.15 K	1112.34 ± 2	1587.8 ± 3.8	44.8 ± 0.8	204.57 ± 9.8
323.15 K	1106.7 ± 2	1571.9 ± 3.8	–	111.34 ± 3.1

OCCNCCO [diethanolamine] + CCN1CCCC1=O
[2]
Settings	mass density [kg/m3]	speed of sound [m/s]	surface tension liquid-gas [mN/m]	viscosity [mPa·s]
293.15 K	1096.45 ± 1.9	1739.2 ± 4	47.4 ± 0.9	892.04 ± 87
303.15 K	1090.02 ± 1.8	1711.3 ± 4	46.6 ± 0.9	394.2 ± 28
313.15 K	1083.51 ± 1.8	1685.9 ± 3.9	46 ± 0.9	191.32 ± 8.8
323.15 K	1077.05 ± 1.7	1661.1 ± 3.9	–	102.72 ± 2.6
